# Laboratory results from publication PMC12292835, “Amylin Receptor 1 Mutagenesis Revealed a Potential Role of Calcitonin Serine 29 in Receptor Interaction” (Biomedicines, 2025).
# Where a SMILES comes first, the peptide text is derived from it. The star is where a group is joined. FITC = O=C1OC2(c3ccc(O)cc3Oc3cc(O)ccc32)c2ccc(NC(=S)*)cc21
# How the values were obtained:
# [1] = biological target: T1, amylin receptor 1 ECD with calcitonin receptor D97E mutation (Homo sapiens, UniProt O60894+P30988, D97E); experiment: FP saturation binding, D97E; settings: for Average fluorescence intensity change upon receptor ECD binding: % of a free probe intensity, Mean ± S.D., max receptor 3 μM (sCT), 1 μM (AC413); for effect of mutation on binding affinity: in words
# T1 construct: pHLsec/hRAMP1.24–111-(GSA)3-hCTR.34–141.D97E-H6 (D-pJS001); H6 (hexahistidine) (C); made in house; host or cells: HEK293 (transient transfection, secreted, N-glycosylated)
# From the text: (§1) pHLsec-based vectors were used to express wild-type and mutated amylin receptor 1 extracellular domains as secreted proteins to cell culture media. The plasmid DNA construct of the wild-type amylin receptor 1 extracellular domain, pHLsec/hRAMP1.24–111-(GSA)3-hCTR.34–141-H6 (H-pSL005) was previously described. The following DNA vector plasmids were made for this study: pHLsec/hRAMP1.24–111-(GSA)3-hCTR.34–141.D97A-H6 (D-pSL009), pHLsec/hRAMP1.24–111-(GSA)3-hCTR.34–141.D97E-H6 (D-pJS001), pHLsec/hRAMP1.24–111-(GSA)3-hCTR.34–141.D101A-H6 (D-pJJ003), pHLsec/hRAMP1.24–111-(GSA)3-hCTR.34–141.D101E-H6 (D-pJJ002), pHLsec/hRAMP1.24–111-(GSA)3-hCTR.34–141.E123A-H6 (D-pJJ004), pHLsec/hRAMP1.24–111-(GSA)3-hCTR.34–141.E123D-H6 (D-pJJ001), pHLsec/hRAMP1.24–111-(GSA)3-hCTR.34–141.N124A-H6 (D-pJS005), pHLsec/hRAMP1.24–111-(GSA)3-hCTR.34–141.N124D-H6 (D-pJS006), pHLsec/hRAMP1.24–111-(GSA)3-hCTR.34–141.N135A-H6 (D-pJW001), and pHLsec/hRAMP1.24–111-(GSA)3-hCTR.34–141.N135D-H6 (D-pJS002). The mutations were introduced to the calcitonin receptor extracellular domain by using DNA Assembly reaction. Coding sequences of the receptor expression vectors were confirmed with Sanger sequencing by Bionics (Seoul, Republic of Korea). DNA plasmid vectors were extracted and were purified from bacterial cells with NucleoBond® Extra Midi Plus kit (Macherey-Nagel, Germany). The purified DNA vectors were stored at −20 °C until their use for mammalian cell transfection.
# (§2) The overall experimental procedure of reconstituting the functional amylin receptor 1 extracellular domain (ECD) as the fusion protein of RAMP1 ECD and the calcitonin receptor ECD was previously described. The wild-type and mutated amylin receptor 1 ECDs were expressed from HEK293 cells with transient transfection with polyethylenimine. The expressed receptor proteins were secreted to cell culture media for 4 days at 37 °C. The media were collected for the receptor protein purification. Initial dialysis was performed with the dialysis buffer (Tris 25 mM (pH 7.4), NaCl 150 mM, and imidazole 10 mM) overnight. […] Then, a size exclusion column chromatography (SEC) was performed with SEC column (Cytiva, HiLoad® 16/600 Superdex® 200 pg) and SEC buffer (Tris 50 mM (pH 7.4), NaCl 150 mM, and glycerol (v/v) 10%) as previously described. As the final step, the purified receptor proteins were dialyzed to storage buffer (HEPES 25 mM (pH 7.4), NaCl 150 mM, and glycerol (v/v) 50 %) and were stored at −60 °C until their use for the receptor–ligand binding assay. […]
# (§3) The overall procedure of the FP binding assay with a saturation binding format was previously described. […] FITC-labeled peptide probes were incubated for 1 h at room temperature with the purified receptor protein prior to fluorescence signal measurement. […]
# [2] = biological target: T2, amylin receptor 1 ECD wild-type (WT) (Homo sapiens, UniProt O60894+P30988); experiment: FP saturation binding, FITC peptide probes, wild-type amylin receptor 1 ECD; settings: for Average fluorescence intensity change upon receptor ECD binding: % of a free probe intensity, Mean ± S.D., WT, max receptor 3 μM (sCT), 1 μM (AC413)
# T2 construct: pHLsec/hRAMP1.24–111-(GSA)3-hCTR.34–141-H6 (H-pSL005); H6 (hexahistidine) (C); made in house; host or cells: HEK293 (transient transfection, secreted, N-glycosylated)
# From the text: as §1
# The overall experimental procedure of reconstituting the functional amylin receptor 1 extracellular domain (ECD) as the fusion protein of RAMP1 ECD and the calcitonin receptor ECD was previously described. The wild-type and mutated amylin receptor 1 ECDs were expressed from HEK293 cells with transient transfection with polyethylenimine. […]
# as §3
# [3] = biological target: T3, amylin receptor 1 ECD with calcitonin receptor N135A mutation (Homo sapiens, UniProt O60894+P30988, N135A); experiment: FP saturation binding, N135A; settings: for Average fluorescence intensity change upon receptor ECD binding: % of a free probe intensity, Mean ± S.D., max receptor 3 μM (sCT), 1 μM (AC413); for effect of mutation on binding affinity: in words
# T3 construct: pHLsec/hRAMP1.24–111-(GSA)3-hCTR.34–141.N135A-H6 (D-pJW001); H6 (hexahistidine) (C); made in house; host or cells: HEK293 (transient transfection, secreted, N-glycosylated)
# From the text: as §1, §2, §3
# [4] = biological target: T4, amylin receptor 1 ECD with calcitonin receptor E123D mutation (Homo sapiens, UniProt O60894+P30988, E123D); experiment: FP saturation binding, E123D; settings: for Average fluorescence intensity change upon receptor ECD binding: % of a free probe intensity, Mean ± S.D., max receptor 3 μM (sCT), 1 μM (AC413); for effect of mutation on binding affinity: compared with E123A, in words
# T4 construct: pHLsec/hRAMP1.24–111-(GSA)3-hCTR.34–141.E123D-H6 (D-pJJ001); H6 (hexahistidine) (C); made in house; host or cells: HEK293 (transient transfection, secreted, N-glycosylated)
# From the text: as §1, §2, §3
# [5] = biological target: T5, amylin receptor 1 ECD with calcitonin receptor N135D mutation (Homo sapiens, UniProt O60894+P30988, N135D); experiment: FP saturation binding, N135D; settings: for Average fluorescence intensity change upon receptor ECD binding: % of a free probe intensity, Mean ± S.D., max receptor 3 μM (sCT), 1 μM (AC413); for effect of mutation on binding affinity: in words
# T5 construct: pHLsec/hRAMP1.24–111-(GSA)3-hCTR.34–141.N135D-H6 (D-pJS002); H6 (hexahistidine) (C); made in house; host or cells: HEK293 (transient transfection, secreted, N-glycosylated)
# From the text: as §1, §2, §3
# T1 sequence (O60894 24-111): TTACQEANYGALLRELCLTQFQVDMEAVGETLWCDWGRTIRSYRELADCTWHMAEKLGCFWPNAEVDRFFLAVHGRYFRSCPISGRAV
# T1 sequence (P30988 34-141 D97E): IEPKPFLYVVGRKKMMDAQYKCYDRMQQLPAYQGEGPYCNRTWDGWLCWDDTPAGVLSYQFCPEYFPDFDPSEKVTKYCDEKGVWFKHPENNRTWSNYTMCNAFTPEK
# T3 sequence (O60894 24-111): as the sequence (O60894 24-111) above
# T3 sequence (P30988 34-141 N135A): as the sequence (P30988 34-141 D97E) above, with E64D, N102A counted along it
# T2 sequence (O60894 24-111): as the sequence (O60894 24-111) above
# T2 sequence (P30988 34-141): as the sequence (P30988 34-141 D97E) above, with E64D counted along it
# T5 sequence (O60894 24-111): as the sequence (O60894 24-111) above
# T5 sequence (P30988 34-141 N135D): as the sequence (P30988 34-141 D97E) above, with E64D, N102D counted along it
# T4 sequence (O60894 24-111): as the sequence (O60894 24-111) above
# T4 sequence (P30988 34-141 E123D): as the sequence (P30988 34-141 D97E) above, with E64D, E90D counted along it
SMILES,Average fluorescence intensity change upon receptor ECD binding [1],effect of mutation on binding affinity [1],Average fluorescence intensity change upon receptor ECD binding [2],Average fluorescence intensity change upon receptor ECD binding [3],effect of mutation on binding affinity [3],Average fluorescence intensity change upon receptor ECD binding [4],effect of mutation on binding affinity [4],Average fluorescence intensity change upon receptor ECD binding [5],effect of mutation on binding affinity [5],stronger affinity of FITC-labeled over non-labeled peptide ([2]; KD 81 nM versus previously reported KI 2.5 μM of non-labeled sCT(22–32))
CC(C)C[C@H](NC(=O)[C@H](CCCNC(=N)N)NC(=O)[C@@H](NC(=O)[C@H](CC(C)C)NC(=O)[C@H](Cc1ccccc1)NC(=O)[C@H](CC(N)=O)NC(=O)[C@H](C)NC(=S)Nc1ccc2c(c1)C(=O)OC21c2ccc(O)cc2Oc2cc(O)ccc21)C(C)C)C(=O)N[C@@H](CCC(N)=O)C(=O)N[C@H](C(=O)N[C@@H](Cc1ccc(O)cc1)C(=O)N1CCC[C@H]1C(=O)N[C@@H](CCCNC(=N)N)C(=O)N[C@H](C(=O)N[C@@H](CC(N)=O)C(=O)N[C@H](C(=O)NCC(=O)N[C@@H](C)C(=O)N[C@@H](CC(N)=O)C(=O)N[C@H](C(=O)N1CCC[C@H]1C(N)=O)[C@@H](C)O)C(C)C)[C@@H](C)O)[C@@H](C)O [FITC-AC413(6–25) Y25P] ({FITC}-ANFLVRLQTYPRTNVGANTP-NH2; C-terminus assumed),68 ± 3%,not significantly changed,67 ± 8%,87 ± 15%,markedly decreased the binding affinity,72 ± 4%,failed to restore the decreased binding affinity,85 ± 15%,failed to recover the binding affinity,–
C[C@@H](O)[C@H](NC(=O)[C@H](CC(N)=O)NC(=O)[C@@H](NC(=O)[C@H](CCCNC(=N)N)NC(=O)[C@@H]1CCCN1C(=O)[C@H](Cc1ccc(O)cc1)NC(=S)Nc1ccc2c(c1)C(=O)OC21c2ccc(O)cc2Oc2cc(O)ccc21)[C@@H](C)O)C(=O)NCC(=O)N[C@@H](CO)C(=O)NCC(=O)N[C@H](C(=O)N1CCC[C@H]1C(N)=O)[C@@H](C)O [FITC-sCT(22–32)] ({FITC}-YPRTNTGSGTP-NH2; C-terminus assumed),78 ± 4%,partially restored the decreased affinity,71 ± 4%,81 ± 10%,markedly decreased the binding affinity,72 ± 6%,fully restored the decreased binding affinity,99 ± 0.1%,failed to recover the binding affinity,more than 30 fold
